Bounds are passed on as bounds.

In one assay the test system is HCT116. In words: MTT assay, survival of human colorectal cancer cells HCT116. It is filed as cell-based. Conditions: HCT-116, 48 h, mean ± SD, read-out: Human cell lines HCT116 IC50(μM ± SD). As to the method: The effects on cell viability of the HSP90/HDAC6 dual inhibitors as described in Synthesis Examples (such as Compounds 63, 64, and 66 to 76) were evaluated. Cells were seeded in 96-well plates (5000 cells/well). The next day, the serially diluted drugs were added into the wells and incubated at 37° C. for 48 h. Cell viability was measured by the MTT assay and is expressed as percentages of surviving drug-treated cells relative to untreated control cells. The IC50 was calculated by non-linear regression analysis.
The inhibitory effect of the HSP90/HDAC6 dual inhibitors as described in Synthesis Examples on the survival rate of human colorectal cancer cells HCT116 is evaluated using MTT assay.

Another assay addresses T1, HDAC1 (Homo sapiens, UniProt Q13547).
T1 construct: Reaction Biology Corporation (ran the assay as a service)
In words: HDAC enzymes inhibition assay (Reaction Biology), HDAC1. It is filed as biochemical. The note with it: 10-dose, 3-fold dilution from 10 μM, single experiment.

A further assay concerns the target T2, HDAC3 (Homo sapiens, UniProt O15379).
T2 construct: Reaction Biology Corporation (ran the assay as a service)
In words: HDAC enzymes inhibition assay (Reaction Biology), HDAC3. It is filed as biochemical. Conditions: 10-dose, 3-fold dilution from 10 μM, single experiment.

The target in the next assay is T3, HDAC6 (Homo sapiens, UniProt Q9UBN7).
T3 construct: Reaction Biology Corporation (ran the assay as a service)
T3 sequence (Q9UBN7 1-1215): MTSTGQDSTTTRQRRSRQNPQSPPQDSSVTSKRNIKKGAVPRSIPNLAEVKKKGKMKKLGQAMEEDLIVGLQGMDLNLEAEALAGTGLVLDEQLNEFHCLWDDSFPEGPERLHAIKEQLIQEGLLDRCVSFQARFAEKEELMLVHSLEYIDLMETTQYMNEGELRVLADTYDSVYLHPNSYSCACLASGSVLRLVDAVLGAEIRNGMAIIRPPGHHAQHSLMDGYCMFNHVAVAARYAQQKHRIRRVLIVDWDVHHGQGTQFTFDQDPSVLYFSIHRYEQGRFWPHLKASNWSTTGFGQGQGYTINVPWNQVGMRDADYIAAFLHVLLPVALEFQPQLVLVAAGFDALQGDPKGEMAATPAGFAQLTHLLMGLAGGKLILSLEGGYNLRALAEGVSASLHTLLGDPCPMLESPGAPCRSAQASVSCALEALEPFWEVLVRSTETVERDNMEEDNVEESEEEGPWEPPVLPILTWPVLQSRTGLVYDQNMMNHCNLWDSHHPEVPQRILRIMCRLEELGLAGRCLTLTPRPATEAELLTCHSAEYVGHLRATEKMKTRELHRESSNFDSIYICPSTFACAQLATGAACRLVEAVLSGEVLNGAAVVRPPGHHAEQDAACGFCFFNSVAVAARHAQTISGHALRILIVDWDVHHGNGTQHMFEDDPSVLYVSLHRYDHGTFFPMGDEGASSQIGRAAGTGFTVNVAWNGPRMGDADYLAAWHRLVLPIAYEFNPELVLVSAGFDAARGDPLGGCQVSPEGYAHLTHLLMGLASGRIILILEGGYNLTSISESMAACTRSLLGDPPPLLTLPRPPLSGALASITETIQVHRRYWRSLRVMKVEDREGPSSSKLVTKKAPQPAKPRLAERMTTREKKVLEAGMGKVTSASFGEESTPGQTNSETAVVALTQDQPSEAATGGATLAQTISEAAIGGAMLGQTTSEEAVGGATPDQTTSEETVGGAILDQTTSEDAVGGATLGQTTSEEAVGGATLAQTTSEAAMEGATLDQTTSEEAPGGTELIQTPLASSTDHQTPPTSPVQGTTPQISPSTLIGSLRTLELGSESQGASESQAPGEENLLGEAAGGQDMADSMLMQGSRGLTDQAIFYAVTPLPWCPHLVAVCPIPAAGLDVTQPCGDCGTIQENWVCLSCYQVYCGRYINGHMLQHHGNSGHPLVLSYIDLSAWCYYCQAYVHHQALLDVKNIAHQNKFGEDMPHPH
Briefly: HDAC enzymes inhibition assay (Reaction Biology), HDAC6. It is filed as biochemical. The note with it: 10-dose, 3-fold dilution from 10 μM, single experiment.

In a further assay the target is T4, HSP90α (Homo sapiens, UniProt P07900).
T4 construct: Reaction Biology Corporation (ran the assay as a service)
In words: HSP90 inhibition assay, FITC-geldanamycin competition fluorescence polarization, HSP90α. Format: binding. The note with it: FITC-GM competition.

Another assay concerns the target T5, HSP90β (Homo sapiens, UniProt P08238).
T5 construct: Reaction Biology Corporation (ran the assay as a service)
Briefly: HSP90 inhibition assay, FITC-geldanamycin competition fluorescence polarization, HSP90β. Format: binding. Conditions: FITC-GM competition.

T2 sequence (O15379 whole entry): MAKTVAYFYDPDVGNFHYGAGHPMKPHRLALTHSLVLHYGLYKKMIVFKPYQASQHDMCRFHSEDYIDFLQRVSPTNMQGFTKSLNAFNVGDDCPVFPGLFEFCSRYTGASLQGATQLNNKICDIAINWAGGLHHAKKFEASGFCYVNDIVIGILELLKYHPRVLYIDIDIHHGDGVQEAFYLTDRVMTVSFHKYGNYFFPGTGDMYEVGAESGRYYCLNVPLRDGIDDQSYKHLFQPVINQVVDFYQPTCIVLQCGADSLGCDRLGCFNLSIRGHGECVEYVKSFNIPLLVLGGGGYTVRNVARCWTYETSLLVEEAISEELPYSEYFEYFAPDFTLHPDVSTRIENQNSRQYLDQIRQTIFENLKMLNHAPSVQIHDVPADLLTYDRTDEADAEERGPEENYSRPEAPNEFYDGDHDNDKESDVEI
T2 sequence (Q9Y618 395-489 partner limits assumed): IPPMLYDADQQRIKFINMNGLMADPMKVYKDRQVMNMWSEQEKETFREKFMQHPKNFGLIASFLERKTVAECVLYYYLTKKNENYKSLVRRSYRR
T1 sequence (Q13547 whole entry): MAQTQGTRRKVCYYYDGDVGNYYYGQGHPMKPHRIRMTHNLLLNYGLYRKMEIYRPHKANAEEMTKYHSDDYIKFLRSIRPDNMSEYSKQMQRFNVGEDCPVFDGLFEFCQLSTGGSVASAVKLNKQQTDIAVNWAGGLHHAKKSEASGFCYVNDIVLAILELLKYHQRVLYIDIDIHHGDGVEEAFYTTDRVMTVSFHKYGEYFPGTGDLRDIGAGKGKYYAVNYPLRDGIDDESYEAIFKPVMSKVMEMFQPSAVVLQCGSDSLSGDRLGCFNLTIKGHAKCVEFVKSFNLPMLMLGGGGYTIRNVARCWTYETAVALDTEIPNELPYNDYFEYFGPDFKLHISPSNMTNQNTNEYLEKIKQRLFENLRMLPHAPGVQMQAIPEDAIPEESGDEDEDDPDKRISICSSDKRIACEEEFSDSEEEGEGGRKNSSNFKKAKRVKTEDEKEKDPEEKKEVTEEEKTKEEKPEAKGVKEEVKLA
T5 sequence (P08238 whole entry): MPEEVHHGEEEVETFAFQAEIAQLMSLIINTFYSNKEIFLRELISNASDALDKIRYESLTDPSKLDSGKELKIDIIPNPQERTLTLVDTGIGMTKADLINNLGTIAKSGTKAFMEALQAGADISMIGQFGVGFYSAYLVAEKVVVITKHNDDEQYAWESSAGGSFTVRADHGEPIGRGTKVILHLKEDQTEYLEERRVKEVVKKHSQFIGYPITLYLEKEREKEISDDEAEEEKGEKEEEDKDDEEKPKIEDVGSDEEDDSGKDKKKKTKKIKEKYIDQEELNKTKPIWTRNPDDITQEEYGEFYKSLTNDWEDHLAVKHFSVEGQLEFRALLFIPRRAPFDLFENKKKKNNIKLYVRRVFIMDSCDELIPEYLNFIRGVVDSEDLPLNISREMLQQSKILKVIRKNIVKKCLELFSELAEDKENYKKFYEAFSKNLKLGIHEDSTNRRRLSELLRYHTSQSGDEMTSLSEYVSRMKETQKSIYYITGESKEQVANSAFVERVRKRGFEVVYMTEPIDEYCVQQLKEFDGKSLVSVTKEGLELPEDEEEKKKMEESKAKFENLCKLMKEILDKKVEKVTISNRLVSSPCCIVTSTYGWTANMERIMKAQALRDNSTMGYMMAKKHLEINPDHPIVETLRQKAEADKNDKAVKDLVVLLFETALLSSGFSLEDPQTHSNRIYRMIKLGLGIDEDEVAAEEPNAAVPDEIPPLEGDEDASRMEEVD

For the compound `CC(C)c1cc(C(=O)N(C)Cc2ccc(C(=O)NO)cc2)c(O)cc1O` [Compound 63, 2,4-dihydroxy-N-(4-(hydroxycarbamoyl)benzyl)-5-isopropyl-N-methylbenzamide], the IC50 in the assay on HCT116 was 1.09 ± 0.08 µM; at HDAC1, 1760 nM; at HDAC3, 3620 nM; at HDAC6, 5.93 nM; on HSP90α, 25.2 nM; on HSP90β, 38.8 nM.

With `CCN(Cc1ccc(C(=O)NO)cc1)C(=O)c1cc(C(C)C)c(O)cc1O` [Compound 64, N-ethyl-2,4-dihydroxy-N-(4-(hydroxycarbamoyl)benzyl)-5-isopropylbenzamide], the IC50 in the assay on HCT116 was 3.69 ± 0.09 µM; against HDAC1 it was 5230 nM; against HDAC3, above 10000 nM; against HDAC6 it was 23 nM; at HSP90α, 93.9 nM; on HSP90β it was 190 nM.

On to `CC(C)c1cc(C(=O)N(Cc2ccc(C(=O)NO)cc2)c2ccccc2)c(O)cc1O` [Compound 66, 2,4-dihydroxy-N-(4-(hydroxycarbamoyl)benzyl)-5-isopropyl-N-phenylbenzamide], for which the IC50 turned out to be 0.9 ± 0.09 µM with HCT116; 3680 nM at HDAC1; 4740 nM on HDAC3; 23.9 nM at HDAC6; 54.5 nM at HSP90α; 200 nM on HSP90β.

`CC(C)c1cc(C(=O)N(Cc2ccc(C(=O)NO)cc2)c2ccc(F)cc2)c(O)cc1O` [Compound 67, N-(4-fluorophenyl)-2,4-dihydroxy-N-(4-(hydroxycarbamoyl)benzyl)-5-isopropylbenzamide]: the IC50 in the assay with HCT116 was 4.61 ± 0.11 µM; at HDAC1, 1690 nM; at HDAC3, 3140 nM; against HDAC6, 22.9 nM; on HSP90α, 40.8 nM; on HSP90β, 103 nM.

Turning to `CC(C)c1cc(C(=O)N(Cc2ccc(C(=O)NO)cc2)c2ccc(Cl)cc2)c(O)cc1O` [Compound 68, N-(4-chlorophenyl)-2,4-dihydroxy-N-(4-(hydroxycarbamoyl)benzyl)-5-isopropylbenzamide], the IC50 with HCT116 turned out to be 5.28 ± 0.92 µM; against HDAC1, 1810 nM; against HDAC3, 3030 nM; on HDAC6, 17.2 nM; on HSP90α, 59.9 nM; at HSP90β it was 159 nM.

Take `CC(C)c1cc(C(=O)N(Cc2ccc(C(=O)NO)cc2)c2ccc(I)cc2)c(O)cc1O` [Compound 69, 2,4-dihydroxy-N-(4-(hydroxycarbamoyl)benzyl)-N-(4-iodophenyl)-5-isopropylbenzamide]: the IC50 in the assay with HCT116 was determined as 1.16 ± 0.01 µM; at HDAC1, 1290 nM; against HDAC3 it was 2170 nM; against HDAC6, 9.17 nM; at HSP90α, 91.4 nM; at HSP90β, 272 nM.

On to `CC(C)c1cc(C(=O)N(Cc2ccc(C(=O)NO)cc2)c2ccc3c(c2)OCO3)c(O)cc1O` [Compound 70, N-(benzo[d][1,3]dioxol-5-yl)-2,4-dihydroxy-N-(4-(hydroxycarbamoyl)benzyl)-5-isopropylbenzamide], for which the IC50 stood at 0.25 ± 0.04 µM in the assay on HCT116; 1120 nM at HDAC1; 2200 nM against HDAC3; 12.9 nM against HDAC6; 39.9 nM at HSP90α; 95.6 nM at HSP90β.

Take `CC(C)c1cc(C(=O)N(Cc2ccc(C(=O)NO)cc2)c2ccc(N3CCOCC3)cc2)c(O)cc1O` [Compound 71, 2,4-dihydroxy-N-(4-(hydroxycarbamoyl)benzyl)-5-isopropyl-N-(4-morpholinophenyl)benzamide]: the IC50 amounted to 0.47 ± 0.02 µM in the assay on HCT116; 275 nM at HDAC1; 691 nM on HDAC3; 16 nM against HDAC6; 16.3 nM at HSP90α; 18.7 nM on HSP90β.

Consider `CC(C)c1cc(C(=O)N(Cc2ccc(C(=O)NO)cc2)c2ccc(N(C)C)cc2)c(O)cc1O` [Compound 72, N-(4-(dimethylamino)phenyl)-2,4-dihydroxy-N-(4-(hydroxycarbamoyl)benzyl)-5-isopropylbenzamide], for which the IC50 came out at 0.9 ± 0.18 µM in the assay with HCT116; 1070 nM on HDAC1; 2190 nM at HDAC3; 13.7 nM against HDAC6; 32.2 nM at HSP90α; 117 nM on HSP90β.

Take `CC(C)c1cc(C(=O)N(Cc2ccc(C(=O)NO)cc2)c2ccc(N3CCN(C)CC3)cc2)c(O)cc1O` [Compound 73, 2,4-dihydroxy-N-(4-(hydroxycarbamoyl)benzyl)-5-isopropyl-N-(4-(4-methylpiperazin-1-yl)phenyl)benzamide]: the IC50 was determined as 1.25 ± 0.13 µM in the assay on HCT116; 173 nM against HDAC1; 645 nM at HDAC3; 5.88 nM against HDAC6; 36.7 nM on HSP90α; 60.5 nM on HSP90β.

Regarding `CC(C)c1cc(C(=O)N(Cc2ccc(C(=O)NO)cc2)c2ccc(N3CCCCC3)cc2)c(O)cc1O` [Compound 74, 2,4-dihydroxy-N-(4-(hydroxycarbamoyl)benzyl)-5-isopropyl-N-(4-(piperidin-1-yl)phenyl)benzamide], the IC50 with HCT116 came out at 4.83 ± 0.47 µM; against HDAC1 it was 1230 nM; on HDAC3, 2700 nM; on HDAC6, 70.5 nM; on HSP90α, 98.7 nM; on HSP90β, 373 nM.

Turning to `CC(C)c1cc(C(=O)N(Cc2ccc(C(=O)NO)cc2)c2ccc(O)cc2)c(O)cc1O` [Compound 76, 2,4-Dihydroxy-N-(4-hydroxycarbamoyl-benzyl)-N-(4-hydroxy-phenyl)-5-isopropyl-benzamide], the IC50 in the assay with HCT116 came to 0.83 ± 0.01 µM; against HDAC1 it was 961 nM; on HDAC3, 2840 nM; against HDAC6, 6.54 nM; on HSP90α it was 35 nM; on HSP90β it was 51.8 nM.

The record behind these values is patent publication US20240398823A1, “DUAL INHIBITOR OF HISTONE DEACETYLASE 6 AND HEAT SHOCK PROTEIN 90” (TAIPEI MEDICAL UNIVERSITY, priority 2021, published 2024).
